The values below come from ChEMBL document CHEMBL1138438, “Structural-activity relationship study of highly-functionalized imidazolines as potent inhibitors of nuclear transcription factor-kappaB mediated IL-6 production” (Bioorg Med Chem, 2009).

The source made the active and inactive calls. The rule behind the calls is not given here. A value given as a limit tells only on which side of the number the result lay.

Data set [1] has as its system HeLa. In words: Effect on cell cycle arrest in TNF-alpha-stimulated human HeLa cells transfected with NFkappaB-Luc assessed as cell debris level at 0.05 uM after 8 hrs by using propidium iodide staining by FACS analysis. It is filed as functional.
For data set [2], the system named is HeLa. In words: Cell cycle arrest in TNF-alpha-stimulated human HeLa cells transfected with NFkappaB-Luc assessed as accumulation at diploid stage at 0.1 uM after 8 hrs by using propidium iodide staining by FACS analysis. It is filed as functional.
The subject of data set [3] is HeLa. The data set can be described thus: Cell cycle arrest in TNF-alpha-stimulated human HeLa cells transfected with NFkappaB-Luc assessed as accumulation at diploid S phase at 0.5 uM after 8 hrs by using propidium iodide staining by FACS analysis. It is filed as functional.
The test system of data set [4] is HeLa. In words: Cell cycle arrest in human HeLa cells transfected with NFkappaB-Luc assessed as accumulation at diploid S phase at 20 uM after 8 hrs by using propidium iodide staining by FACS analysis. It is filed as functional.
The subject of data set [5] is HeLa. The data set can be described thus: Cell cycle arrest in TNF-alpha-stimulated human HeLa cells transfected with NFkappaB-Luc assessed as accumulation at diploid G2 phase at 0.05 uM after 8 hrs by using propidium iodide staining by FACS analysis. It is filed as functional.
A short description of data set [6]: Inhibition of NF-kappaB-mediated gene transcription expressed in TNF-alpha-stimulated human HeLa cells co-transfected with renilla luciferase-TK gene preincubated for 30 mins before TNFalpha challenge measured after 8 hrs by dual-glo luciferase reporter gene assay. It is filed as cell-based.
Data set [7] is described as follows: Cytotoxicity against human whole blood lymphocytes assessed as survival cell count in millions at 1 uM after 24 hrs by trypan blue staining-based hemocytometry.
For data set [8], the system named is HeLa. The data set can be described thus: Cell cycle arrest in TNF-alpha-stimulated human HeLa cells transfected with NFkappaB-Luc assessed as accumulation at diploid S phase at 0.05 uM after 8 hrs by using propidium iodide staining by FACS analysis. It is filed as functional.
Data set [9] relates to HeLa. The data set can be described thus: Stimulation of NF-kappaB-mediated gene transcription expressed in human HeLa cells for 30 mins before TNFalpha challenge measured after 8 hrs by steady-glo luciferase reporter gene assay. It is filed as cell-based.
The test system of data set [10] is HeLa. In words: Cell cycle arrest in TNF-alpha-stimulated human HeLa cells transfected with NFkappaB-Luc assessed as accumulation at diploid stage at 20 uM after 8 hrs by using propidium iodide staining by FACS analysis. It is filed as functional.
The subject of another data set is Blood. In words: Antiinflammatory activity in human whole blood assessed as inhibition of IL-1-beta-stimulated IL6 production preincubated 2 hrs before IL1-beta challenge measured after 22 hrs by ELISA. It is filed as functional, tissue-based.
Data set [11] deals with HeLa. In words: Cell cycle arrest in TNF-alpha-stimulated human HeLa cells transfected with NFkappaB-Luc assessed as accumulation at diploid G1 phase at 5 uM after 8 hrs by using propidium iodide staining by FACS analysis. It is filed as functional.
Data set [12] has as its system HeLa. In words: Effect on cell cycle arrest in TNF-alpha-stimulated human HeLa cells transfected with NFkappaB-Luc assessed as cell debris level at 0.5 uM after 8 hrs by using propidium iodide staining by FACS analysis. It is filed as functional.
Data set [13] concerns HeLa. In words: Cell cycle arrest in TNF-alpha-stimulated human HeLa cells transfected with NFkappaB-Luc assessed as accumulation at diploid stage at 5 uM after 8 hrs by using propidium iodide staining by FACS analysis. It is filed as functional.
Data set [14] relates to HeLa. The data set can be described thus: Cell cycle arrest in TNF-alpha-stimulated human HeLa cells transfected with NFkappaB-Luc assessed as accumulation at diploid stage at 0.5 uM after 8 hrs by using propidium iodide staining by FACS analysis. It is filed as functional.
In data set [15] the test system is HeLa. In words: Effect on cell cycle arrest in TNF-alpha-stimulated human HeLa cells transfected with NFkappaB-Luc assessed as cell aggregate level at 10 uM after 8 hrs by using propidium iodide staining by FACS analysis. It is filed as functional.
Data set [16] in a line: Cytotoxicity against human whole blood lymphocytes assessed as survival cell count in millions at 20 uM after 24 hrs by trypan blue staining-based hemocytometry.
Data set [17] deals with HeLa. In words: Effect on cell cycle arrest in TNF-alpha-stimulated human HeLa cells transfected with NFkappaB-Luc assessed as cell debris level at 5 uM after 8 hrs by using propidium iodide staining by FACS analysis. It is filed as functional.
Data set [18] can be described thus: Cytotoxicity against IL-1-beta-stimulated human whole blood lymphocytes assessed as survival cell count in millions at 20 uM after 24 hrs by trypan blue staining-based hemocytometry.
Data set [19] concerns HeLa. In words: Cell cycle arrest in human HeLa cells transfected with NFkappaB-Luc assessed as accumulation at diploid G1 phase at 20 uM after 8 hrs by using propidium iodide staining by FACS analysis. It is filed as functional.
The subject of data set [20] is HeLa. In words: Effect on cell cycle arrest in TNF-alpha-stimulated human HeLa cells transfected with NFkappaB-Luc assessed as total background cell aggregate and debris level at 0.5 uM after 8 hrs by using propidium iodide staining by FACS analysis. It is filed as functional.
The nature of data set [21]: Cytotoxicity against human 184B5 cells after 24 hrs by MTS assay. It is filed as cell-based.

For the compound `CCOC(=O)[C@]1(c2ccccc2)N=C(c2ccccc2)N(Cc2ccccc2)[C@@H]1c1ccccc1` (racemic), the Activity came to 2.47% with HeLa [1]; 100% in the data set on HeLa [2]; 22.52% in the data set on HeLa [3]; 21.48% in the data set with HeLa [4]; 12.9% with HeLa [5]; 0.8 mL⁻¹ in data set [7]. Also, the Activity in the data set on HeLa [8] came to 22.8%; with HeLa [10], 100%; in the data set with HeLa [11] it was 66.37%; in the data set on HeLa [12], 3.68%; with HeLa [13] it was 100%; with HeLa [14], 100%. The Activity was 0% with HeLa [15]; 1.02 mL⁻¹ in data set [16]; 2.7% in the data set on HeLa [17]; 0.98 mL⁻¹ in [18]; 65.19% in the data set on HeLa [19]; 1.29% in the data set on HeLa [20]. The midpoint of the response in data set [6], the EC50, lay at 4.67 µM. Moreover, the result in the data set on HeLa [9] was inactive. For the same compound, the concentration for half-maximal inhibition (IC50) in the data set on Blood is 2.5 µM. For the same compound, the CC50 at 24 h in [21] is over 10 µM.
